Results on 46 molecules are retold here after US20030027819A1, “Beta-sheet mimetics and methods relating to the use thereof” (Molecumetics Ltd., priority 1996, published 2003).

For orientation: Ki means a measure of affinity in units of concentration, obtained from inhibition or displacement.

This experiment has as its target thrombin (Bos taurus, UniProt P00735). Nature of the experiment: Thrombin inhibition by solid phase compounds of Tables 11-15. The format is biochemical. The arrangement: 100 μl of 10 μM thrombin solution. The note with it: mixtures of diastereomers; read-out: Ki as thrombin inhibitors (mark at Cpd. No.). The method, then: Following extensive washing with DMF, the resin was treated with the acid fluoride of N-Fmoc-4-aminomethylbenzoic acid, or (81), or (86) and Hunigs' base in DMF until the Kaiser test was negative. Alternatively, the Fmoc-protected thiazole-(75) or imidazole-based (77) linkers were coupled to the resin using BOP, HOBt and DIEA. In some instances Fmoc-Leu or another amino acid was attached to the resin prior to the thiazole-(75) or imidazole-based (77) linkers via the same methodology. […] Following washing with DMF a dienoic acid was coupled to the resin-bound linkers using PyBOP, HOBt and Hunigs' base in DMF until the result of a Kaiser test was negative. The cycloaddition was performed by pretreatment of a solution of a pyrazolidinedione (not shown) or urazole in DMF with a solution of [bis(trifluoroacetoxy)iodo]benzene in DMF. […] The resin was then washed with DMF and CH2Cl2. Oxidation to the ketoamide was effected by treatment of the resin with a solution of Dess-Martin periodinane in DMSO for 60 min. […] The supernatant was collected and the resin was washed with additional TFA. The combined filtrates were concentrated in vacuo. The residue was precipitated with diethyl ether and the ether was decanted. The resulting solid was reconstituted in 1:1 CH3CN:H2O and lyophilized. […] The compounds were assayed for inhibition of coagulation enzymes as mixtures of diastereomers.
For `CCC=CCCC1C=CC(C(=O)NC(CCCCN)C(=O)C(=O)NCCc2ccc(C(N)=O)cc2)n2c(=O)n(Cc3cc(F)ccc3F)c(=O)n21` (mixture of isomers) [Structure 103], the Ki was below 10 nM.
With `CCC=CCCC1C=CC(C(=O)NC(CCCCN)C(=O)C(=O)NCCc2ccc(C(N)=O)cc2)n2c(=O)n(Cc3ccc(C(F)(F)F)c(F)c3)c(=O)n21` (mixture of isomers) [Structure 104] the figure was below 10 nM; with `CCC=CCCC1C=CC(C(=O)NC(CCCCN)C(=O)C(=O)NCCc2ccc(C(N)=O)cc2)n2c(=O)n(C(Cc3ccccc3)c3ccccc3)c(=O)n21` (mixture of isomers) [Structure 105], below 10 nM.
With `CCC=CCCC1C=CC(C(=O)NC(CCCCN)C(=O)C(=O)NCCc2ccc(C(N)=O)cc2)n2c(=O)n(Cc3ccccc3)c(=O)n21` (mixture of isomers) [Structure 107] the figure was below 10 nM; with `CC1=CC(C(=O)NC(CCCCN)C(=O)C(=O)NCCc2ccc(C(N)=O)cc2)n2c(=O)n(Cc3cc(F)ccc3F)c(=O)n2C1` (stereo not shown) [Structure 100], below 10 nM.
With `NCCCCC(NC(=O)C1C=C2CCCCC2n2c(=O)n(Cc3cc(F)ccc3F)c(=O)n21)C(=O)C(=O)NCCc1ccc(C(N)=O)cc1` (stereo not shown) [Structure 101] the figure was below 10 nM; with `CC1=CC(C(=O)NC(CCCCN)C(=O)C(=O)NCc2ccc(C(=O)NCCc3ccccc3)cc2)n2c(=O)n(Cc3cc(F)ccc3F)c(=O)n2C1` (stereo not shown) [Structure 102], below 10 nM; with `CC(C)CC1C=CC(C(=O)NC(CCCCN)C(=O)C(=O)NCc2ccc(C(N)=O)cc2)n2c(=O)n(C(c3ccccc3)c3ccccc3)c(=O)n21` (stereo not shown) [Structure 108], below 10 nM.
Take `CC(C)CC1C=CC(C(=O)NC(CCCCN)C(=O)C(=O)NCc2ccc(C(N)=O)cc2)n2c(=O)n(Cc3cccc4ccccc34)c(=O)n21` (stereo not shown) [Structure 109]: the Ki is below 10 nM.
As to `CC(C)CC1C=CC(C(=O)NC(CCCCN)C(=O)C(=O)NCc2ccc(C(N)=O)cc2)n2c(=O)n(Cc3cccs3)c(=O)n21` (stereo not shown) [Structure 110], the Ki was below 10 nM.
In the case of `CC(C)CC1C=CC(C(=O)NC(CCCCN)C(=O)C(=O)NCCc2ccc(C(N)=O)cc2)n2c(=O)n(CC(C)c3ccccc3)c(=O)n21` (stereo not shown) [Structure 111] it was below 10 nM; in that of `CC(C)CC1C=CC(C(=O)NC(CCCCN)C(=O)C(=O)NCCc2ccc(C(N)=O)cc2)n2c(=O)n(Cc3ccccc3)c(=O)n21` (stereo not shown) [Structure 112], below 10 nM; in that of `CC(C)CC1C=CC(C(=O)NC(CCCCN)C(=O)C(=O)NCCc2ccc(C(N)=O)cc2)n2c(=O)n(Cc3cc(F)ccc3F)c(=O)n21` (stereo not shown) [Structure 113], below 10 nM.
With `COc1ccccc1-n1c(=O)n2n(c1=O)C(C(=O)NC(CCCCN)C(=O)C(=O)NCCc1ccc(C(N)=O)cc1)C=CC2CC(C)C` (stereo not shown) [Structure 114] the figure was below 10 nM; with `CC(C)CC1C=CC(C(=O)NC(CCCCN)C(=O)C(=O)NCCc2ccc(C(N)=O)cc2)n2c(=O)n(CCc3cccs3)c(=O)n21` (stereo not shown) [Structure 115], below 10 nM; with `CC(C)CC1C=CC(C(=O)NC(CCCCN)C(=O)C(=O)NCCc2ccc(C(N)=O)cc2)n2c(=O)n(Cc3cccs3)c(=O)n21` (stereo not shown) [Structure 116], below 10 nM.
With `CC(C)CC1C=CC(C(=O)NC(CCCCN)C(=O)C(=O)NCCc2ccc(C(N)=O)cc2)n2c(=O)n(Cc3cccc4ccccc34)c(=O)n21` (stereo not shown) [Structure 117] the figure was below 10 nM.
Consider `CC(C)CC1C=CC(C(=O)NC(CCCCN)C(=O)C(=O)NCCc2ccc(C(N)=O)cc2)n2c(=O)n(C(c3ccccc3)c3ccccc3)c(=O)n21` (stereo not shown) [Structure 118], for which the Ki was below 10 nM.
With `NCCCCC(NC(=O)C1C=C2CCCCC2n2c(=O)n(CCc3cccs3)c(=O)n21)C(=O)C(=O)NCCc1ccc(C(N)=O)cc1` (stereo not shown) [Structure 119] the figure was below 10 nM; with `NCCCCC(NC(=O)C1C=C2CCCCC2n2c(=O)n(Cc3cc(F)ccc3F)c(=O)n21)C(=O)C(=O)NCCc1ccc(C(N)=O)cc1` (stereo not shown) [Structure 120], below 10 nM; with `CC(Cn1c(=O)n2n(c1=O)C1CCCCC1=CC2C(=O)NC(CCCCN)C(=O)C(=O)NCCc1ccc(C(N)=O)cc1)c1ccccc1` (stereo not shown) [Structure 121], below 10 nM.
In the case of `CC1=CC(C(=O)NC(CCCCN)C(=O)C(=O)NCCc2ccc(C(N)=O)cc2)n2c(=O)n(Cc3cc(F)ccc3F)c(=O)n2C1c1ccccc1` (stereo not shown) [Structure 122] it was below 10 nM; in that of `CC1=CC(C(=O)NC(CCCCN)C(=O)C(=O)NCCc2ccc(C(N)=O)cc2)n2c(=O)n(CC(C)c3ccccc3)c(=O)n2C1c1ccccc1` (stereo not shown) [Structure 123], below 10 nM; in that of `CC1=CC(C(=O)NC(CCCCN)C(=O)C(=O)NCCc2ccc(C(N)=O)cc2)n2c(=O)n(Cc3cccs3)c(=O)n2C1c1ccccc1` (stereo not shown) [Structure 124], below 10 nM.
With `CC1=CC(C(=O)NC(CCCCN)C(=O)C(=O)NCCc2ccc(C(N)=O)cc2)n2c(=O)n(Cc3cccc4ccccc34)c(=O)n2C1c1ccccc1` (stereo not shown) [Structure 125] the figure was below 10 nM; with `CC(C)CCn1c(=O)n2n(c1=O)C(C(=O)NC(CCCCN)C(=O)C(=O)NCCc1ccc(C(N)=O)cc1)C=CC2CC(C)CC(C)(C)C` (stereo not shown) [Structure 126], below 10 nM.
As to `COc1ccccc1-n1c(=O)n2n(c1=O)C(C(=O)NC(CCCCN)C(=O)C(=O)NCCc1ccc(C(N)=O)cc1)C=CC2CC(C)CC(C)(C)C` (stereo not shown) [Structure 127], the Ki is below 10 nM.
In the case of `CC(CC1C=CC(C(=O)NC(CCCCN)C(=O)C(=O)NCCc2ccc(C(N)=O)cc2)n2c(=O)n(-c3ccc(C(C)(C)C)cc3)c(=O)n21)CC(C)(C)C` (stereo not shown) [Structure 128] it was below 10 nM.
For the molecule `CC(CC1C=CC(C(=O)NC(CCCCN)C(=O)C(=O)NCCc2ccc(C(N)=O)cc2)n2c(=O)n(C(Cc3ccccc3)c3ccccc3)c(=O)n21)CC(C)(C)C` (stereo not shown) [Structure 129], the Ki is below 10 nM.
As to `CC(CC1C=CC(C(=O)NC(CCCCN)C(=O)C(=O)NCCc2ccc(C(N)=O)cc2)n2c(=O)n(CC(c3ccccc3)c3ccccc3)c(=O)n21)CC(C)(C)C` (stereo not shown) [Structure 130], the Ki was below 10 nM.
In the case of `CC(CC1C=CC(C(=O)NC(CCCCN)C(=O)C(=O)NCCc2ccc(C(N)=O)cc2)n2c(=O)n(C(c3ccccc3)c3ccccc3)c(=O)n21)CC(C)(C)C` (stereo not shown) [Structure 131] it was below 10 nM; in that of `CC(CC1C=CC(C(=O)NC(CCCCN)C(=O)C(=O)NCCc2ccc(C(N)=O)cc2)n2c(=O)n(Cc3ccccc3)c(=O)n21)CC(C)(C)C` (stereo not shown) [Structure 132], below 10 nM.
With `CC(CC1C=CC(C(=O)NC(CCCCN)C(=O)C(=O)NCCc2ccc(C(N)=O)cc2)n2c(=O)n(Cc3ccc(C(F)(F)F)cc3)c(=O)n21)CC(C)(C)C` (stereo not shown) [Structure 133] the figure was below 10 nM; with `CC(CC1C=CC(C(=O)NC(CCCCN)C(=O)C(=O)NCCc2ccc(C(N)=O)cc2)n2c(=O)n(Cc3ccc(C(F)(F)F)c(F)c3)c(=O)n21)CC(C)(C)C` (stereo not shown) [Structure 134], below 10 nM; with `CC(CC1C=CC(C(=O)NC(CCCCN)C(=O)C(=O)NCCc2ccc(C(N)=O)cc2)n2c(=O)n(Cc3cc(F)ccc3F)c(=O)n21)CC(C)(C)C` (stereo not shown) [Structure 135], below 10 nM.
With `CC1=CC(C(=O)NC(CCCCN)C(=O)C(=O)NCCc2ccc(C(N)=O)cc2)n2c(=O)n(C(Cc3ccccc3)c3ccccc3)c(=O)n2C1` (stereo not shown) [Structure 136] the figure was below 10 nM; with `CC1=CC(C(=O)NC(CCCCN)C(=O)C(=O)NCCc2ccc(C(N)=O)cc2)n2c(=O)n(Cc3ccc(C(F)(F)F)c(F)c3)c(=O)n2C1` (stereo not shown) [Structure 137], below 10 nM.
Turning to `CC1=CC(C(=O)NC(CCCCN)C(=O)C(=O)NCCc2ccc(C(N)=O)cc2)n2c(=O)n(C(c3ccccc3)c3ccccc3)c(=O)n2C1` (stereo not shown) [Structure 138], the Ki was below 10 nM.
Turning to `CC(C)(C)CC1C=CC(C(=O)NC(CCCCN)C(=O)C(=O)NCCc2ccc(C(N)=O)cc2)n2c(=O)n(Cc3cc(F)ccc3F)c(=O)n21` (stereo not shown) [Structure 139], the Ki is below 10 nM.
In the case of `CC(C)(C)CC1C=CC(C(=O)NC(CCCCN)C(=O)C(=O)NCCc2ccc(C(N)=O)cc2)n2c(=O)n(Cc3ccccc3)c(=O)n21` (stereo not shown) [Structure 140] it was below 10 nM.
With `CC(C)(C)CC1C=CC(C(=O)NC(CCCCN)C(=O)C(=O)NCCc2ccc(C(N)=O)cc2)n2c(=O)n(C(c3ccccc3)c3ccccc3)c(=O)n21` (stereo not shown) [Structure 141] the figure was below 10 nM.
For `CC(C)(C)CC1C=CC(C(=O)NC(CCCCN)C(=O)C(=O)NCCc2ccc(C(N)=O)cc2)n2c(=O)n(CCc3ccccc3)c(=O)n21` (stereo not shown) [Structure 142], the Ki is below 10 nM.
In the case of `CC(C)(C)CC1C=CC(C(=O)NC(CCCCN)C(=O)C(=O)NCCc2ccc(C(N)=O)cc2)n2c(=O)n(CC(c3ccccc3)c3ccccc3)c(=O)n21` (stereo not shown) [Structure 143] it was below 10 nM; in that of `CC(C)(C)CC1C=CC(C(=O)NC(CCCCN)C(=O)C(=O)NCCc2ccc(C(N)=O)cc2)n2c(=O)n(C(Cc3ccccc3)c3ccccc3)c(=O)n21` (stereo not shown) [Structure 144], below 10 nM.
With `CC1=CC(C(=O)NC(CCCCN)C(=O)C(=O)NCCc2ccc(C(N)=O)cc2)n2c(=O)n(CC(F)(F)F)c(=O)n2C1` (stereo not shown) [Structure 145] the figure was below 10 nM; with `CC1C=CC(C(=O)NC(CCCCN)C(=O)C(=O)NCc2ccc(C(N)=O)cc2)n2c(=O)n(CCc3cccs3)c(=O)n21` (stereo not shown) [Structure 146], below 10 nM.
